# Measured values taken from article PMC8379219 (Nature Communications, 2021).
# “And” between values parts separate entries of the source, which are not always exact repeats. Equal values may be shown once.
# Legend:
# [1] = biological target: T1, SERT WT (Homo sapiens, UniProt P31645); experiment: [3H]5-HT saturation uptake with increasing VLZ concentrations, COS-7 cells;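 on all read-outs here: transfected cells assayed 2 days post-transfection, 3 min uptake period, accumulated radioactivity counted in cell lysates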; format: cell-based; parameters: expressed in transfected cells; host or cells: COS-7; [3H]5-HT uptake (Fig. 2A [3H]5-HT Vmax):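 percent of the 5-HT Vmax measured without VLZ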; conditions: for [3H]5-HT uptake (Fig. 2A [3H]5-HT Vmax): replicates
# [2] = biological target: T1, SERT WT; experiment: [3H]IMI dissociation rate assay (allosteric potency), COS-7 membranes; format: binding; parameters: expressed in transfected cells; host or cells: COS-7;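 further: radioligand pre-bound 30 min at room temperature to equilibrium, then dissociation followed over 5–70 min, ended by filtration through GF/B filters, at least three independent experiments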
# T1 sequence (P31645 whole entry): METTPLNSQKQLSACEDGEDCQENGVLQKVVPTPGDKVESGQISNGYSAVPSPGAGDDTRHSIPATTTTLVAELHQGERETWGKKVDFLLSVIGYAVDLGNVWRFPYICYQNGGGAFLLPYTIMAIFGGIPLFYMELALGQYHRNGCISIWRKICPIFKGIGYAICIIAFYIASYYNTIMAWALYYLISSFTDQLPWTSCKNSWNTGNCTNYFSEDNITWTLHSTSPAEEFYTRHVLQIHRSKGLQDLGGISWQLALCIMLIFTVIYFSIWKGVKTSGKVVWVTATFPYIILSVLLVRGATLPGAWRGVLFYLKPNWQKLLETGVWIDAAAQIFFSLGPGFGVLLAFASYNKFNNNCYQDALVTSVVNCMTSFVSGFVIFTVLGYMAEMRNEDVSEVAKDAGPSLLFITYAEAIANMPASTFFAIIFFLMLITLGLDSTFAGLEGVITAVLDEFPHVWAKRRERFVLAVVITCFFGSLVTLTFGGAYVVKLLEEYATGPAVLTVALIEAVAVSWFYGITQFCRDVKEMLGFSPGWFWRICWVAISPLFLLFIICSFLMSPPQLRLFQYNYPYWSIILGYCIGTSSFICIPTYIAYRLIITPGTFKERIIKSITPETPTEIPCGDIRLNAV
compound,measurement,setting,value
"N#Cc1ccc2[nH]cc(CCCCN3CCN(c4ccc5oc(C(N)=O)cc5c4)CC3)c2c1 [VLZ, Vilazodone]",[3H]5-HT uptake (Fig. 2A [3H]5-HT Vmax),"[1]; 1.0 nM VLZ, 5-HT 1000 nM",49.0825 and 65.883 and 64.0163
same,[3H]5-HT uptake (Fig. 2A [3H]5-HT Vmax),"[1]; 1.0 nM VLZ, 5-HT 2000 nM",61.0408 and 86.9627 and 62.7549
same,[3H]5-HT uptake (Fig. 2A [3H]5-HT Vmax),"[1]; 1.0 nM VLZ, 5-HT 3000 nM",66.441 and 97.8152 and 78.0502
same,[3H]5-HT uptake (Fig. 2A [3H]5-HT Vmax),"[1]; 3.0 nM VLZ, 5-HT 1000 nM",33.7847 and 41.1475 and 28.2118 and 48.6535
same,[3H]5-HT uptake (Fig. 2A [3H]5-HT Vmax),"[1]; 3.0 nM VLZ, 5-HT 2000 nM",43.7743 and 51.4964 and 36.278 and 58.2653
same,[3H]5-HT uptake (Fig. 2A [3H]5-HT Vmax),"[1]; 3.0 nM VLZ, 5-HT 3000 nM",47.6029 and 61.8621 and 42.6502 and 66.7813
same,[3H]5-HT uptake (Fig. 2A [3H]5-HT Vmax),"[1]; 3.8 nM VLZ, 5-HT 1000 nM",22.8758 and 41.0675 and 31.8704 and 40.9164 and 22.5758 and 39.1234
same,[3H]5-HT uptake (Fig. 2A [3H]5-HT Vmax),"[1]; 3.8 nM VLZ, 5-HT 2000 nM",38.6315 and 55.6912 and 34.4535 and 55.6242 and 30.4203 and 47.6358
same,[3H]5-HT uptake (Fig. 2A [3H]5-HT Vmax),"[1]; 3.8 nM VLZ, 5-HT 3000 nM",63.6765 and 45.9269 and 61.6646 and 33.1434 and 58.1985
same,[3H]5-HT uptake (Fig. 2A [3H]5-HT Vmax),"[1]; 6.0 nM VLZ, 5-HT 1000 nM",12.5099 and 7.037 and 21.7589
same,[3H]5-HT uptake (Fig. 2A [3H]5-HT Vmax),"[1]; 6.0 nM VLZ, 5-HT 2000 nM",13.9352 and 18.4437
same,[3H]5-HT uptake (Fig. 2A [3H]5-HT Vmax),"[1]; 6.0 nM VLZ, 5-HT 3000 nM",16.6938 and 13.3777
same,[3H]5-HT uptake (Fig. 2A [3H]5-HT Vmax),"[1]; 7.5 nM VLZ, 5-HT 1000 nM",14.9918 and 20.7791 and 1.755 and 5.881 and 9.304
same,[3H]5-HT uptake (Fig. 2A [3H]5-HT Vmax),"[1]; 7.5 nM VLZ, 5-HT 2000 nM",20.8007 and 29.8638 and 2.631 and 9.704
same,[3H]5-HT uptake (Fig. 2A [3H]5-HT Vmax),"[1]; 7.5 nM VLZ, 5-HT 3000 nM",31.591 and 10.2272 and 13.2803
same,[3H]5-HT uptake (Fig. 2A [3H]5-HT Vmax),"[1]; 10 nM VLZ, 5-HT 1000 nM",11.1656 and 2.348 and 1.555 and 4.995
same,[3H]5-HT uptake (Fig. 2A [3H]5-HT Vmax),"[1]; 10 nM VLZ, 5-HT 2000 nM",17.8898 and 3.041 and 8.84 and 7.029 and 9.965
same,[3H]5-HT uptake (Fig. 2A [3H]5-HT Vmax),"[1]; 10 nM VLZ, 5-HT 3000 nM",19.1566 and 3.978 and 3.024
same,[3H]5-HT uptake (Fig. 2A [3H]5-HT Vmax),"[1]; 15 nM VLZ, 5-HT 1000 nM",1.871 and 1.697 and 1.083 and 0.6379 and 0.8401 and 1.916
same,[3H]5-HT uptake (Fig. 2A [3H]5-HT Vmax),"[1]; 15 nM VLZ, 5-HT 2000 nM",3.689 and 3.04 and 2.083 and 1.212 and 1.597 and 2.763
same,Mode of inhibition of [3H]5-HT transport,[1]; VLZ 0–15 nM,non-competitive
same,5-HT VMAX (in % of no VLZ),[1]; VLZ 1 nM,93 ± 13%
same,5-HT VMAX (in % of no VLZ),[1]; VLZ 3.0 nM,66 ± 10%
same,5-HT VMAX (in % of no VLZ),[1]; VLZ 3.8 nM,72 ± 17%
same,5-HT VMAX (in % of no VLZ),[1]; VLZ 6.0 nM,21 ± 6%
same,5-HT VMAX (in % of no VLZ),[1]; VLZ 7.5 nM,18 ± 8%
same,5-HT VMAX (in % of no VLZ),[1]; VLZ 10 nM,11 ± 5%
same,5-HT VMAX (in % of no VLZ),[1]; VLZ 15 nM,3.4 ± 1.2%
same,5-HT VMAX (in % of no VLZ),[1]; VLZ […],98 ± 10%
same,[3H]IMI dissociation (Fig. 2B),"[2]; 0.5 nM, time 5 min",98.1806
same,[3H]IMI dissociation (Fig. 2B),"[2]; 0.5 nM, time 10 min",95.2605
same,[3H]IMI dissociation (Fig. 2B),"[2]; 0.5 nM, time 15 min",95.3158
same,[3H]IMI dissociation (Fig. 2B),"[2]; 0.5 nM, time 20 min",91.8569
same,[3H]IMI dissociation (Fig. 2B),"[2]; 0.5 nM, time 30 min",86.7456
same,[3H]IMI dissociation (Fig. 2B),"[2]; 0.5 nM, time 50 min",81.092
same,[3H]IMI dissociation (Fig. 2B),"[2]; 0.5 nM, time 70 min",71.6978
same,[3H]IMI dissociation (Fig. 2B),"[2]; 1.6 nM, time 5 min",98.6368
same,[3H]IMI dissociation (Fig. 2B),"[2]; 1.6 nM, time 10 min",97.1109
same,[3H]IMI dissociation (Fig. 2B),"[2]; 1.6 nM, time 15 min",94.6142
same,[3H]IMI dissociation (Fig. 2B),"[2]; 1.6 nM, time 20 min",91.8363
same,[3H]IMI dissociation (Fig. 2B),"[2]; 1.6 nM, time 30 min",88.3693
same,[3H]IMI dissociation (Fig. 2B),"[2]; 1.6 nM, time 50 min",82.8483
same,[3H]IMI dissociation (Fig. 2B),"[2]; 1.6 nM, time 70 min",74.8875
same,[3H]IMI dissociation (Fig. 2B),"[2]; 5.0 nM, time 5 min",97.5709
same,[3H]IMI dissociation (Fig. 2B),"[2]; 5.0 nM, time 10 min",97.4425
same,[3H]IMI dissociation (Fig. 2B),"[2]; 5.0 nM, time 20 min",93.3593
same,[3H]IMI dissociation (Fig. 2B),"[2]; 5.0 nM, time 30 min",90.4506
same,[3H]IMI dissociation (Fig. 2B),"[2]; 5.0 nM, time 50 min",84.3631
same,[3H]IMI dissociation (Fig. 2B),"[2]; 5.0 nM, time 70 min",76.3943
same,[3H]IMI dissociation (Fig. 2B),"[2]; 14 nM, time 5 min",98.3663
same,[3H]IMI dissociation (Fig. 2B),"[2]; 14 nM, time 10 min",97.4617
same,[3H]IMI dissociation (Fig. 2B),"[2]; 14 nM, time 15 min",95.8874
same,[3H]IMI dissociation (Fig. 2B),"[2]; 14 nM, time 20 min",96.0081
same,[3H]IMI dissociation (Fig. 2B),"[2]; 14 nM, time 30 min",92.2894
same,[3H]IMI dissociation (Fig. 2B),"[2]; 14 nM, time 50 min",89.4282
same,[3H]IMI dissociation (Fig. 2B),"[2]; 14 nM, time 70 min",81.9514
same,[3H]IMI dissociation (Fig. 2B),"[2]; 41 nM, time 5 min",97.9849
same,[3H]IMI dissociation (Fig. 2B),"[2]; 41 nM, time 10 min",98.4954
same,[3H]IMI dissociation (Fig. 2B),"[2]; 41 nM, time 15 min",97.2116
